Assay [1] relates to ds26 (DNA, duplex) CAATCGGATCGAATTCGATCCGATTG
Put plainly: fluorescence enhancement. Particulars: K+ 60 mM; Tris-HCl pH 7.4; ligand 5 μM.

The subject of assay [2] is dA21 (DNA, single strand) AAAAAAAAAAAAAAAAAAAAA
Description: fluorescence enhancement. Particulars: K+ 60 mM; Tris-HCl pH 7.4; ligand 5 μM.

In assay [3] the test system is telo21 (DNA, G4) GGGTTAGGGTTAGGGTTAGGG
Put plainly: fluorescence titration. Particulars: K+ 60 mM; 10 mM Tris-HCl pH 7.4; ligand 5 μM.

For the compound `CN(C)c1ccc(/C=C/c2cccc(/C=C/c3ccc(N(C)C)cc3)[n+]2C)cc1`, the binding result in assay [1] and in assay [2] was “weak” each time. In addition, the K in assay [3] is 1.44 ± 0.35 × 10^5 M^-1.
On to `CSc1ccc(/C=C/c2cccc(/C=C/c3ccc(SC)cc3)[n+]2C)cc1`, for which the K in assay [3] is listed as 1.18 ± 0.21 × 10^5 M^-1.

The record behind these values is publication PMC9080739 (2018).
